Source: patent US10370364B1, “Substituted chromenes for treatment of fibrosis or non-alcoholic steatohepatitis” (OSTEONEUROGEN INC., priority 2018, dated 2019)

Key:
CYP2D6 = CYP2D6 (Homo sapiens, UniProt P10635); assay: CYP450 inhibition, CYP2D6
CYP3A4 = CYP3A4 (Homo sapiens, UniProt P08684); assay: CYP450 inhibition, CYP3A4
Snail = Snail expression in A549 cells by real-time PCR; assay type: cell-based, human; details: A549, TGF-β plus compound
Procedure: (§1) In addition, in order to examine whether the effect as described above would be attributable to the effect against EMT, the expression patterns of Snail and Vimentin, which are representative markers of EMT, in the cells of each test group, were analyzed by real-time PCR.

Vimentin = Vimentin expression in A549 cells by real-time PCR; assay type: cell-based, human; details: A549, TGF-β plus compound
Procedure: as §1

[1] = test system: Diseased human lung fibroblasts (DHLF); assay: TGF-β-induced fibrosis of diseased human lung fibroblasts (DHLF); assay type: cell-based; details: TGF-β 5 ng/ml, compound 50 μM, 24, 48 or 72 hours
Procedure: Diseased human lung fibroblasts (DHLF) (Lonza, Swiss) isolated from lung fibrosis patients were seeded into medium, cultured for 24 hours, and then treated with TGF-β (5 ng/ml) to induce fibrosis. Alternatively, the fibroblasts were co-treated with TGF-β and the compound of the present invention (50 μM in DMSO) and cultured for 24, 48 or 72 hours. Next, the degree of differentiation into myofibroblasts was examined with a phase contrast microscope (200×).

C57BL/6 mice = assay: Bleomycin-induced pulmonary fibrosis animal model; assay type: in vivo; details: for Mean Collagen % (histopathology collagen morphometry, left lung): Sirius red
Source text: 5-week-old male C57BL/6 mice (weighed 18.2 to 20.5 g) (KOATECH, Korea) were used as experimental animals and divided into several groups, each consisting of 5 animals.
The experimental animals were housed in a housing box having a size of 369 L×156 W×132H (mm) (EU, USA, UK GL compliance) made of a polysulfone material in a SPF (Specific Pathogen Free) and BSL (Bio Safety Level) 2 grade facility. The number of animals in each housing box was 2 to 3 during the period of quarantine and acclimatization and was also 2 to 3 during the experimental period, and the housing conditions were set to a temperature of 22±2° C., a relative humidity of 50.0±15.0%, a ventilation cycle of 10 to 20 times/hr, a light-dark cycle (a photoperiod) of 12 hr/day (07:00 to 19:00), and an illumination intensity of 150 to 300 Lux.
Pulmonary fibrosis was induced by injecting a bleomycin solution directly into the lungs via the trachea according to the intratracheal instillation (IT) method of Kremer, Laxer and Berkman et al. Specifically, C57BL/6J mice were anesthetized through inhalation with 70% N2O and 30% O2 gas and 1.5% isoflurane, and the skin of the anterior neck thereof was excised and the organs under the muscle thereof were exposed and then carefully excised using ophthalmic surgical scissors. 50 μL of a solution of bleomycin in distilled water was injected directly into the lungs all at once via the excised organ by use of a 1 mL syringe fitted with a 19-gauge injection needle having a blunt tip. Immediately after the injection, the excised skin of the anterior neck was sutured and the mice were allowed to recover from the anesthetic, and then housed in a general housing cage. The administration of bleomycin was performed using a visual instillobot, and bleomycin-HCl 40 μg/50 μL was administered once and a pulmonary fibrosis induction period of 12 days was set.
The compound of the present invention was used after dissolution in 30% HPCD aqueous solution (Formulation Example 5), and the dose for each individual was calculated based on the recent body weight thereof. 12 Days after the administration of bleomycin, the compound of the present invention was administered once a day (5 times a week) for 2 weeks. As a control, pirfenidone which is a therapeutic agent for idiopathic pulmonary fibrosis was administered in the same manner.
On 15 days after administration of the compound, the mice were sacrificed, and then the right lung of each mouse was dissected and the weight thereof was measured. […] In particular, it is noted that the inhibitory effect of the compound in the group administered at 10 mpk was the highest compared to that in the group administered at 50 or 100 mpk and was also higher than that in the group administered with pirfenidone 100 mpk.
The amounts of hydroxyproline (HP) and collagen in the dissected right lung were measured using a known method.
Histopathology collagen morphometry of the dissected left lung tissue was performed using a known method (calculating the area of collagen in an optical image obtained by Sirius red staining of the lung tissue sample).
The pathological conditions of the left lung tissue dissected using a known method were examined by H&E and Sirius Red staining. […] In particular, it is noted that the inhibitory effect of the compound in the group administered at 10 mpk was the highest compared to that in the groups administered at other concentrations.
In order to examine the effect of each treatment in this Experiment on the liver, the liver of each of the sacrificed mice was dissected, and the pathological conditions of the liver tissue were examined by H&E staining.

ONGHEPA1 cells = assay: TGF-β-induced fibrosis of ONGHEPA1 cells (differentiation into myofibroblasts, phase contrast microscope); assay type: cell-based, rat; details: TGF-β 5 ng/ml, compound 50 μM in DMSO, 24 hours
Procedure: In order to examine the effect of a compound of the present invention against fibrosis, ONGHEPA1 cells (KCTC13086BP), which are mesenchymal stem cells (MSCs) derived from rat hepatic stellate cells (HSCs) and capable of proliferating indefinitely, were first used. Fibrosis of the ONGHEPA1 cells can be induced by a simple method of treating the cells with TGF-β (transforming growth factor beta) or PDGF (platelet-derived growth factor).
The ONGHEPA1 cells were seeded into medium, cultured for 24 hours, and then treated with TGF-β (5 ng/ml) to induce cell fibrosis. Alternatively, the cells were co-treated with TGF-β and the compound of the present invention (50 μM in DMSO) and cultured for 24 hours. Next, the degree of fibrosis of the cells, that is, the degree of differentiation into myofibroblasts, was examined with a phase contrast microscope (200×).
In this regard, the detailed experimental method followed the paper of Kim et al. (Han-Soo Kim, Jun-Hwan Kim, Ji Yong Lee, Young-Min Yoon, Ik-Hwan Kim, Ho-Sup Yoon, Byung-Soo Youn. Small molecule-mediated reprogramming of epithelial-mesenchymal transition thereby blocking fibrosis. bioRxiv preprint first posted online Feb. 16, 2017; doi: http://dx.doi.org/10.1101/106591).
The effects of the following comparative compounds against fibrosis were examined in the same manner as described in Experimental Example 1-1 above.

Sequence of CYP3A4 (P08684 whole entry): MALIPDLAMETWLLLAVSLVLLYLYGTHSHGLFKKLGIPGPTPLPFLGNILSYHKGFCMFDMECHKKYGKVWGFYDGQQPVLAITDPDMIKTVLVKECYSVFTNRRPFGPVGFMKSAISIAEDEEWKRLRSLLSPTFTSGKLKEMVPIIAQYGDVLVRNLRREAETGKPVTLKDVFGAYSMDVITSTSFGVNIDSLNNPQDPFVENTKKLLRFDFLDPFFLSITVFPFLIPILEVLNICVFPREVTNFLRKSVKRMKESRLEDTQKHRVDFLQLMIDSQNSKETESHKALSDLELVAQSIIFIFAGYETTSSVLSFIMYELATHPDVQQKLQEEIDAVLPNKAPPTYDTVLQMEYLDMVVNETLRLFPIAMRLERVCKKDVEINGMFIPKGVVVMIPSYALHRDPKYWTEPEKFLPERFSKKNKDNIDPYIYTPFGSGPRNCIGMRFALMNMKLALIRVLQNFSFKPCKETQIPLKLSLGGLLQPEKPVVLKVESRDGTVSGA
Sequence of CYP2D6 (P10635 whole entry): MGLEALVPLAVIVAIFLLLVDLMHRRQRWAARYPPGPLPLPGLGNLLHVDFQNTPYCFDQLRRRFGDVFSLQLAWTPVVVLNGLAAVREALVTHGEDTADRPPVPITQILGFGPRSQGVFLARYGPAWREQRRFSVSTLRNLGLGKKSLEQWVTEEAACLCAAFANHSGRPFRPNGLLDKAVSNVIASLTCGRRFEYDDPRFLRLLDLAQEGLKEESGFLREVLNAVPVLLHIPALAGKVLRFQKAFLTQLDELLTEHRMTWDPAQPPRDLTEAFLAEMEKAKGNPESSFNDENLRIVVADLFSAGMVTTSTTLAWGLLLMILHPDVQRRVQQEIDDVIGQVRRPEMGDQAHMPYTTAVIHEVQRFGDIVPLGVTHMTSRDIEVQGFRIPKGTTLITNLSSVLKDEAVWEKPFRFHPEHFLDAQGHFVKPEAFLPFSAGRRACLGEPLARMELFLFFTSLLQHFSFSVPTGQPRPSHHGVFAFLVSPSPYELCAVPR

## COc1ccc(-c2cc(=O)c3c(O)c(OC)c(OCCN4CCNC(=O)C4)cc3o2)cc1OC [Compound 1, 4-(2-((2-(3,4-dimethoxyphenyl)-5-hydroxy-6-methoxy-4-oxo-4H-chromen-7-yl)oxy)ethyl)piperazin-2-one]
CYP2D6
  IC50: > 50 µM
CYP3A4; 3A4-midazolam IC50, substrate midazolam
  IC50: > 50 µM
CYP3A4; 3A4-testosterone IC50, substrate testosterone
  IC50: 49.7 µM
Snail
  expression of Snail: significantly inhibited
Vimentin
  expression of Vimentin: significantly inhibited
[1]
  degree of differentiation into myofibroblasts (fibrosis symptom): showed little or no fibrosis symptom
  growth of the cells: inhibited
C57BL/6 mice; 10 mpk PO
  Protection Collagen %: 59%
  Mean Collagen % (histopathology collagen morphometry, left lung): 2.8%
C57BL/6 mice; 10 mpk compared to 50 or 100 mpk and pirfenidone 100 mpk
  inhibitory effect on right lung weight, comparison of dose groups: the highest
C57BL/6 mice; 10 mpk compared to other concentrations
  inhibitory effect on lung fibrosis symptoms, comparison of dose groups: the highest
C57BL/6 mice; 50 mpk PO
  Protection Collagen %: 66%
  Mean Collagen % (histopathology collagen morphometry, left lung): 2.4%
C57BL/6 mice; 100 mpk PO
  Protection Collagen %: 59%
  Mean Collagen % (histopathology collagen morphometry, left lung): 2.8%
C57BL/6 mice; bleomycin mice, 10-100 mpk PO
  amount of collagen in right lung: significantly inhibited this increase
  amount of hydroxyproline (HP) in right lung: significantly inhibited this increase
  fibrosis symptoms of left lung tissue, H&E and Sirius Red staining: significantly inhibited such fibrosis symptoms
  increase of collagen in left lung tissue, morphometry (in words): significantly inhibited this increase
C57BL/6 mice; bleomycin mice, 10-100 mpk PO in 30% HPCD, once a day 5 times a week for 2 weeks
  increase in the right lung weight: significantly inhibited
C57BL/6 mice; bleomycin mice, 50 mpk
  pathological condition of liver tissue, H&E staining: showed hepatotoxic symptoms
C57BL/6 mice; bleomycin mice, 100 mpk
  pathological condition of liver tissue, H&E staining: showed hepatotoxic symptoms
C57BL/6 mice; group administered at 100 mpk
  inhibitory effect on collagen, comparison of dose groups: highest
  inhibitory effect on hydroxyproline, comparison of dose groups: highest
C57BL/6 mice; mouse, in vivo, 10 mg/kg
  pathological condition of liver tissue, H&E staining: showed the same condition as that of normal liver tissue
ONGHEPA1 cells
  degree of fibrosis of the cells (differentiation into myofibroblasts): showed no fibrosis symptom
